Data from PMC2781006 (Virology Journal, 2009).
Like-named read-outs stand apart in the source and are kept apart here.

Assays:
Nipah virus [1] = assay: microbe, parasite or virus in culture; type: cell-based; details: read-out: NiV IC50
Hendra virus = assay: microbe, parasite or virus in culture; type: cell-based; details: read-out: HeV IC50
pseudotyped Nipah (pNiV) = assay: microbe, parasite or virus in culture; type: cell-based, Nipah virus; details: read-out: pNiV IC50
[2] = system: pseudotyped Hendra (pHeV); assay: microbe, parasite or virus in culture; type: cell-based, Hendra virus; details: read-out: pHeV IC50
VSV (pVSV) = assay: microbe, parasite or virus in culture; type: cell-based, vesicular stomatitis virus; details: read-out: pVSV IC50
[3] = system: human parainfluenza virus type 3 (HPIV3); assay: microbe, parasite or virus in culture; type: cell-based; details: read-out: HPIV3 IC50
[4] = system: Influenza A/swine/Rachaburi/2000 (H1N1); assay: microbe, parasite or virus in culture; type: cell-based, Influenza A virus
Nipah virus [5] = assay: microbe, parasite or virus in culture; type: cell-based; details: Henipavirus nipahense
IL-8 = type: cell-based, African Green Monkey
influenza A (H1N1) virus = details: cited from earlier work
in vitro [6] = details: African green monkey
in vitro [7] = details: human
TNF-α = type: cell-based, African Green Monkey
Henipavirus = details: cited from earlier work
Nipah virus [8] = details: hamster, in vivo; cited from earlier work
[9] = Henipavirus nipahense, HEK-293T, 48 h
[10] = Vesicular stomatitis virus, HEK-293T, 48 h
[11] = Human respirovirus 3, HEK-293T, 24 h
[12] = 1 h, read-out: NiV IC50, co-infection (Co)
[13] = 1 h, read-out: NiV IC50, post-infection (Post)
[14] = 1 h, read-out: NiV IC50, pre-infection (Pre)
[15] = read-out: NiV IC50, cell pre-incubation (Cells)

## CN(C)c1ccc(C(=C2C=CC(=[N+](C)C)C=C2)c2ccc(N(C)C)cc2)cc1 [Gentian Violet, gentian violet]
Nipah virus [1]; Henipavirus nipahense, Vero
  IC50: 525 nM
Hendra virus; Henipavirus hendraense, Vero
  IC50: 2680 nM
Pseudotyped Nipah (pNiV); [9]
  IC50: 61 nM
[2]; Hendra virus, HEK-293T, 48 h
  IC50: 0.3 nM
VSV (pVSV); [10]
  IC50: 268 nM
[3]; [11]
  IC50: 860 nM
[4]
  Influenza IC50: DNC^a
  inhibition of influenza (H1N1) virus, in words: did not observe clear inhibition
Nipah virus [5]; [12]
  IC50: 4980 nM
Nipah virus [5]; [13]
  IC50: 3950 nM
Nipah virus [5]; [14]
  IC50: 7380 nM
Nipah virus [5]; [15]
  IC50: 587 nM
IL-8
  IL-8 expression, fold change: two fold
Influenza A (H1N1) virus
  residual viable count of influenza virus, 30 min: below three logs
  residual viable count of influenza virus, 60 min: below five logs
In vitro [6]
  CC50: 5860 nM
In vitro [7]
  CC50: 2830 nM

## CN1C(=O)[C@]23CC4=CC=C[C@H](O)[C@H]4N2C(=O)[C@@]1(CO)SS3 [Gliotoxin, gliotoxin]
Nipah virus [1]; Henipavirus nipahense, Vero
  IC50: 149 nM
Hendra virus; Henipavirus hendraense, Vero
  IC50: 579 nM
Pseudotyped Nipah (pNiV); [9]
  IC50: 100 nM
[2]; Hendra virus, HEK-293T, 48 h
  IC50: 366 nM
VSV (pVSV); [10]
  IC50: 232 nM
[3]; [11]
  IC50: 527 nM
[4]
  inhibition of influenza (H1N1) virus, in words: dose-dependant inhibition
[4]; Influenza A virus, H1N1, Vero, in Sus scrofa, 24 h, read-out: Influenza IC50
  IC50: 13800 nM
Nipah virus [5]; [12]
  IC50: 468 nM
Nipah virus [5]; [13]
  IC50: 610 nM
Nipah virus [5]; [14]
  IC50: 1170 nM
Nipah virus [5]; [15]
  IC50: 487 nM
IL-8
  IL-8 expression, fold change: two fold
TNF-α
  TNF-α expression, fold change: suppressed
In vitro [6]
  CC50: 4900 nM
In vitro [7]
  CC50: 1610 nM

## NC(=O)c1ncn([C@@H]2O[C@H](CO)[C@@H](O)[C@H]2O)n1 [Ribavirin, ribavirin]
Nipah virus [1]; Henipavirus nipahense, Vero
  IC50: 3900 nM
Hendra virus; Henipavirus hendraense, Vero
  IC50: 2240 nM
In vitro [6]
  CC50: 150000 nM

## CCN(CC)CCCC(C)Nc1ccnc2cc(Cl)ccc12 (centres unmarked) [chloroquine]
Henipavirus
  anti Henipavirus effects in vivo: no anti Henipavirus effects

## brilliant green
Nipah virus [1]
  IC50: 218 nM
Hendra virus
  IC50: 778 nM
Pseudotyped Nipah (pNiV)
  IC50: 42 nM
[2]
  IC50: 34 nM
VSV (pVSV)
  IC50: 15 nM
[3]
  IC50: 248 nM
[4]
  Influenza IC50: DNC^a
  inhibition of influenza (H1N1) virus, in words: did not observe antiviral efficacy
IL-8
  IL-8 expression, fold change: 20 fold
TNF-α
  TNF-α expression, fold change: 15 fold
Vero cells
  CC50: 4670 nM
293T cells
  CC50: 861 nM

## poly(I)-poly(C12U)
Nipah virus [8]
  prevention of mortality: five of six animals
